Patent publication US20060069132A1, “Azolecarboxamide herbicides” (priority 2004, published 2006)

Legend:
kochia = test: Test C pre-/postemergence herbicide test; assay type: in vivo, Kochia scoparia; conditions: for Kochia plant response rating: 500 g ai/ha
Outline: (§1)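 Pre/post spray; non-phytotoxic solvent + surfactant. Post-timing 1–4 leaves, 2–18 cm. Read-out: visual % control vs untreated, day 12–14, greenhouse.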

barnyardgrass = test: Test C flooded paddy test; assay type: in vivo, Echinochloa crus-galli
Outline: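 Plants were grown to the 1- to 4-leaf stage (2–18 cm) and then treated postemergence, or grown to the 2-leaf stage for the flooded paddy test. They were held in a greenhouse for 12 to 14 days and then scored by eye against controls, where 0 is no effect and 100 is complete control.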

yellow nutsedge = test: Test C pre-/postemergence herbicide test; assay type: in vivo, Cyperus esculentus; conditions: for Nutsedge, Yellow plant response rating: 500 g ai/ha
Outline: as §1

bermudagrass = test: Test C pre-/postemergence herbicide test; assay type: in vivo, Cynodon dactylon; conditions: for Bermudagrass plant response rating: 500 g ai/ha
Outline: as §1

velvetleaf [1] = test: Test A pre-/postemergence herbicide test; assay type: in vivo, Abutilon theophrasti
Outline: (§2)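 Greenhouse injury scoring (0–100, complete control = 100) at approximately ten days follows simultaneous pre- and postemergence application. Soil received a directed spray after seeding; seedlings of 2–10 cm at the one- to two-leaf stage were sprayed to runoff.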

woolly cupgrass = test: Test C pre-/postemergence herbicide test; assay type: in vivo, Eriochloa villosa; conditions: for Cupgrass, Woolly plant response rating: 500 g ai/ha
Outline: as §1

cocklebur = test: Test C pre-/postemergence herbicide test; assay type: in vivo, Xanthium strumarium; conditions: for Cocklebur plant response rating: 500 g ai/ha
Outline: as §1

redroot pigweed = test: Test A pre-/postemergence herbicide test; assay type: in vivo, Amaranthus retroflexus
Outline: as §2

velvetleaf [2] = test: Test C pre-/postemergence herbicide test; assay type: in vivo, Abutilon theophrasti; conditions: for Velvetleaf plant response rating: 500 g ai/ha
Outline: as §1

soybean = test: Test C pre-/postemergence herbicide test; assay type: in vivo, Glycine max; conditions: for Soybean plant response rating: 500 g ai/ha
Outline: as §1

giant foxtail = test: Test C pre-/postemergence herbicide test; assay type: in vivo, Setaria faberi; conditions: for Foxtail, Giant plant response rating: 500 g ai/ha
Outline: as §1

corn = test: Test C pre-/postemergence herbicide test; assay type: in vivo, Zea mays; conditions: for Corn plant response rating: 500 g ai/ha
Outline: as §1

morningglory = test: Test C pre-/postemergence herbicide test; assay type: in vivo, Ipomoea coccinea; set-up: key to Plant response rating, Morningglory: 0 = no effect, 100 = complete control; conditions: for Morningglory plant response rating: 500 g ai/ha
Outline: as §1

goosegrass = test: Test C pre-/postemergence herbicide test; assay type: in vivo, Eleusine indica; conditions: for Goosegrass plant response rating: 500 g ai/ha
Outline: as §1

[3] = 125 g ai/ha, scale 0 (no effect) to 100 (complete control), visual, 12 to 14 days, preemergence
[4] = Postemergence, 250 g ai/ha, scale 0 to 100, 0 no effect, 100 complete control
[5] = Preemergence, scale 0 to 100, 0 no effect, 100 complete control
[6] = postemergence, 125 g ai/ha, scale 0 to 100
[7] = postemergence, 62 g ai/ha, scale 0 to 100
[8] = 250 g ai/ha, scale 0 to 100 (0 no effect, 100 complete control), visual, 12 to 14 days, preemergence
[9] = Postemergence, 500 g ai/ha, 0 to 100 scale, 0 no effect, 100 complete control
[10] = Postemergence, 2000 g ai/ha, 0 to 100 scale, 0 no effect, 100 complete control
[11] = Preemergence, 500 g ai/ha, visual rating, 0 to 100 scale (0 no effect, 100 complete control)
[12] = Preemergence, 2000 g ai/ha, visual rating, 0 to 100 scale (0 no effect, 100 complete control)

In the case of `CC(=NO)c1cccc(NC(=O)c2cc(C(C)(C)C)nn2CCF)c1` [Compound 115], the “Plant response rating (0 = no effect, 100 = complete control), Kochia” value (kochia; 62 g ai/ha, preemergence) is reported as 100, the “Plant response rating, Kochia” value (kochia; [3]) is reported as 100 and the “Kochia plant response rating” value (kochia; Postemergence, scale 0 to 100) is reported as 90. The “Plant response rating, Kochia” value (kochia; [4]) was 90, the “Kochia plant response rating” value (kochia; [5]) was 100 and the “Plant response rating, Kochia” value (kochia; [6]) was 90. The “Plant response rating, Kochia” value (kochia; [7]) was 80, the “Barnyardgrass plant response rating” value (barnyardgrass; 62 g ai/ha, scale 0 to 100 (0 no effect, 100 complete control)) was 30 and the “Barnyardgrass plant response rating” value (barnyardgrass; 125 g ai/ha, scale of 0 to 100, 0 is no effect, 100 is complete control) was 45. For the same compound, the “Barnyardgrass plant response rating” value (barnyardgrass; 250 g ai/ha, scale of 0 to 100, 0 is no effect, 100 is complete control) was 65, the “Plant response rating, Barnyardgrass” value (barnyardgrass; 500 g ai/ha, visual rating after 12 to 14 days, scale 0 to 100 (0 no effect, 100 complete control)) was 75 and the “Plant response rating (0 = no effect, 100 = complete control), Nutsedge, Yellow” value (yellow nutsedge; 62 g ai/ha, preemergence) was 0. The “Plant response rating, Nutsedge, Yellow” value (yellow nutsedge; [3]) was 0, the “Nutsedge, Yellow plant response rating” value (yellow nutsedge; Postemergence, scale 0 to 100) was 30 and the “Plant response rating, Nutsedge, Yellow” value (yellow nutsedge; [4]) was 30. The “Nutsedge, Yellow plant response rating” value (yellow nutsedge; [5]) was 20, the “Plant response rating, Nutsedge, Yellow” value (yellow nutsedge; [6]) was 10 and the “Plant response rating, Nutsedge, Yellow” value (yellow nutsedge; [7]) was 0. For the same compound, the “Plant response rating (0 = no effect, 100 = complete control), Bermudagrass” value (bermudagrass; 62 g ai/ha, preemergence) was 100, the “Plant response rating, Bermudagrass” value (bermudagrass; [3]) was 100 and the “Plant response rating, Bermudagrass” value (bermudagrass; [8]) was 100. The “Bermudagrass plant response rating” value (bermudagrass; Postemergence, scale 0 to 100) was 100, the “Plant response rating, Bermudagrass” value (bermudagrass; [4]) was 60 and the “Bermudagrass plant response rating” value (bermudagrass; [5]) was 100. For the same compound, the “Plant response rating, Bermudagrass” value (bermudagrass; [6]) was 60, the “Plant response rating, Bermudagrass” value (bermudagrass; [7]) was 10 and the “Velvetleaf plant response rating” value (velvetleaf [1]; [9]) was 40. The “Plant response rating, Velvetleaf” value (velvetleaf [1]; [10]) was 40, the “Velvetleaf plant response rating” value (velvetleaf [1]; [11]) was 85 and the “Velvetleaf plant response rating” value (velvetleaf [1]; [12]) was 95. For the same compound, the “Plant response rating (0 = no effect, 100 = complete control), Cupgrass, Woolly” value (woolly cupgrass; 62 g ai/ha, preemergence) was 20, the “Plant response rating, Cupgrass, Woolly” value (woolly cupgrass; [3]) was 30 and the “Plant response rating, Cupgrass, Woolly” value (woolly cupgrass; [8]) was 80. The “Cupgrass, Woolly plant response rating” value (woolly cupgrass; Postemergence, scale 0 to 100) was 70, the “Plant response rating, Cupgrass, Woolly” value (woolly cupgrass; [4]) was 70 and the “Cupgrass, Woolly plant response rating” value (woolly cupgrass; [5]) was 90. The “Plant response rating, Cupgrass, Woolly” value (woolly cupgrass; [6]) was 70, the “Plant response rating, Cupgrass, Woolly” value (woolly cupgrass; [7]) was 50 and the “Plant response rating (0 = no effect, 100 = complete control), Cocklebur” value (cocklebur; 62 g ai/ha, preemergence) was 20. For the same compound, the “Plant response rating, Cocklebur” value (cocklebur; [3]) was 40, the “Plant response rating, Cocklebur” value (cocklebur; [8]) was 50 and the “Cocklebur plant response rating” value (cocklebur; Postemergence, scale 0 to 100) was 100. For the same compound, the “Plant response rating, Cocklebur” value (cocklebur; [4]) was 100, the “Cocklebur plant response rating” value (cocklebur; [5]) was 100 and the “Plant response rating, Cocklebur” value (cocklebur; [6]) was 90. The “Plant response rating, Cocklebur” value (cocklebur; [7]) was 90, the “Pigweed plant response rating” value (redroot pigweed; [9]) was 95 and the “Plant response rating, Pigweed” value (redroot pigweed; [10]) was 100. For the same compound, the “Pigweed plant response rating” value (redroot pigweed; [11]) was 95, the “Pigweed plant response rating” value (redroot pigweed; [12]) was 100 and the “Plant response rating, Velvetleaf” value (velvetleaf [2]; [3]) was 100. For the same compound, the “Velvetleaf plant response rating” value (velvetleaf [2]; Postemergence, scale 0 to 100) was 90, the “Plant response rating, Velvetleaf” value (velvetleaf [2]; [4]) was 90 and the “Velvetleaf plant response rating” value (velvetleaf [2]; [5]) was 100. For the same compound, the “Plant response rating, Velvetleaf” value (velvetleaf [2]; [6]) was 90, the “Plant response rating, Velvetleaf” value (velvetleaf [2]; [7]) was 60 and the “Plant response rating (0 = no effect, 100 = complete control), Soybean” value (soybean; 62 g ai/ha, preemergence) was 0. For the same compound, the “Plant response rating, Soybean” value (soybean; [3]) was 0, the “Soybean plant response rating” value (soybean; Postemergence, scale 0 to 100) was 90 and the “Plant response rating, Soybean” value (soybean; [4]) was 80. For the same compound, the “Soybean plant response rating” value (soybean; [5]) was 0, the “Plant response rating, Soybean” value (soybean; [6]) was 70 and the “Plant response rating, Soybean” value (soybean; [7]) was 60. For the same compound, the “Plant response rating (0 = no effect, 100 = complete control), Foxtail, Giant” value (giant foxtail; 62 g ai/ha, preemergence) was 40, the “Plant response rating, Foxtail, Giant” value (giant foxtail; [3]) was 90 and the “Plant response rating, Foxtail, Giant” value (giant foxtail; [8]) was 100. The “Foxtail, Giant plant response rating” value (giant foxtail; Postemergence, scale 0 to 100) was 80, the “Plant response rating, Foxtail, Giant” value (giant foxtail; [4]) was 60 and the “Foxtail, Giant plant response rating” value (giant foxtail; [5]) was 100. The “Plant response rating, Foxtail, Giant” value (giant foxtail; [6]) was 40, the “Plant response rating, Foxtail, Giant” value (giant foxtail; [7]) was 40 and the “Plant response rating (0 = no effect, 100 = complete control), Corn” value (corn; 62 g ai/ha, preemergence) was 10. The “Plant response rating, Corn” value (corn; [3]) was 10, the “Plant response rating, Corn” value (corn; [8]) was 20 and the “Corn plant response rating” value (corn; Postemergence, scale 0 to 100) was 40. For the same compound, the “Corn plant response rating” value (corn; [5]) was 30, the “Plant response rating, Corn” value (corn; [6]) was 40 and the “Plant response rating, Corn” value (corn; [7]) was 40. For the same compound, the “Plant response rating, Morningglory” value (morningglory; [3]) was 30, the “Morningglory plant response rating” value (morningglory; Postemergence, scale 0 to 100) was 100 and the “Morningglory plant response rating” value (morningglory; [5]) was 80. For the same compound, the “Plant response rating, Morningglory” value (morningglory; [6]) was 80, the “Plant response rating, Morningglory” value (morningglory; [7]) was 50 and the “Plant response rating (0 = no effect, 100 = complete control), Goosegrass” value (goosegrass; 62 g ai/ha, preemergence) was 70. For the same compound, the “Plant response rating, Goosegrass” value (goosegrass; [3]) was 80, the “Goosegrass plant response rating” value (goosegrass; Postemergence, scale 0 to 100) was 70 and the “Plant response rating, Goosegrass” value (goosegrass; [4]) was 70. For the same compound, the “Goosegrass plant response rating” value (goosegrass; [5]) was 100, the “Plant response rating, Goosegrass” value (goosegrass; [6]) was 60 and the “Plant response rating, Goosegrass” value (goosegrass; [7]) was 40.
